Results from US5741671A, “Isolation cloning and expression of transmembrane water channel aquaporin 1(AQP1)” (The Johns Hopkins University, priority 1995, dated 1998).

Legend:
human RBC = details: cited from earlier work
AQP1 = target: T1, AQP1 (Homo sapiens, UniProt P29972); assay: Stopped-flow osmotic water permeability of AQP1 proteoliposomes; format: biochemical; details: CHIP28 proteoliposomes
T1 construct: Human erythrocytes were obtained from blood-bank units stored up to 5 weeks; from tissue; host or cells: human erythrocytes (blood-bank units; small-scale preparations from freshly drawn whole blood)
T1 sequence (P29972 2-269 limits assumed): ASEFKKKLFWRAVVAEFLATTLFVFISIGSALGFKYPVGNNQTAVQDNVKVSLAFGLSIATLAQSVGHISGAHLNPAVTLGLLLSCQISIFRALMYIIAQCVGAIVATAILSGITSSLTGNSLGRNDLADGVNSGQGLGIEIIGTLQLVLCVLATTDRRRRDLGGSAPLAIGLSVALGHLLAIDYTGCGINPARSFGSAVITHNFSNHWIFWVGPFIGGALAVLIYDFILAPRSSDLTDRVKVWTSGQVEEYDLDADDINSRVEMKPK
Excerpt: Preparation AQP1-containing proteoliposomes. Crude Escherichia coli lipid was obtained from Avanti Polar Lipids, Inc., and neutral lipid was removed by acetone/ether wash (Ambudkar & Maloney, 1986, Methods. Enzymol. 125:558-563). The purified E. coli bulk phospholipid is composed of phosphalidylethanolamine (70%), phosphatidylglycerol (15%), and cardiolipin (15%) (Chen & Wilson, […], Proc. Natl. Acad. Sci. USA 83:2652-2656). E. coli bulk phospholipid was employed since it has previously been used for functional reconstitution of several transport proteins including the glucose transporter of RBCs (Maloney & Ambudkar, 1989, Arch. Biochem. Biophys. 269:1-10; Chen et al., 1986, Proc. Natl. Acad. Sci. USA 83:2652-2656).
Highly purified AQP1 protein was incorporated into proteoliposomes by detergent dilution; control liposomes were formed in an identical manner without AQP1 protein.
Purified AQP1 was stored overnight at 0° C. or frozen for several days at -80° C. prior to reconstitution. Reconstitution into proteoliposomes was carried out in a final volume of 1 ml containing 60-90 μg of purified AQP1 protein in chromatography buffer, 9 mg of bath-sonicated E. coli phospholipid, 1.25% (w/v) octyl glucoside, and 50 mM Tris-HCl (pH 7.5). The mixture was briefly blended on a vortex mixer and incubated for 20 minutes on ice. Proteoliposomes (or liposomes prepared without protein) were formed at room temperature by rapidly injecting the mixture into 25 ml of buffer A [50 mM MOPS, pH 7.5, 150 mM N-methyl-D-glucamine (NMDG) chloride also containing 10-15 mM carboxyfluorescein, 1 mM dithiothreitol, and 0.5 mM PMSF]. For the measurement of proton permeability, proteoliposomes and liposomes were loaded with buffer B (5 mM MOPS, pH 7.5, 150 mM KCl, 0.5 mM carboxyfluorescein, 1 mM dithiothreitol, and 0.5 mM PMSF). The suspension was incubated for 20 minutes at room temperature. Proteoliposomes or liposomes were collected by centrifugation for 1 hour at 123000×g in a Beckman Type 42.1 rotor at 4° C. The pellet was resuspended in 8 ml of buffer A or B and then centrifuged for 1 hour at 152000×g in a Beckman Type 50 Ti rotor. Proteoliposomes or liposomes were resuspended in 300 μl of buffer A or B and stored at 4° C. for 16-24 hours. Typically 50% (54±6%, n=5) of the AQP1 protein and 70% of the phospholipid were recovered in proteoliposomes. The lipid to protein ratio was in the range of 120:1 to 219:1. […] Protein and phospholipid were measured as described by Ambudkar & Maloney (J. Biol. Chem., 1986, 261:10079-10086).
(§1) Permeability measurements. Membrane permeability measurements (Pf) were measured by exposing AQP1 proteoliposomes or control liposomes to an osmotic gradient by rapid mixing with an equal volume of another solution containing buffer A plus sufficient sucrose to increase osmolality in the mixed solutions to a value 120% of that in the original solution. This was performed with a stopped-flow fluorometer (SF.17MV, Applied Photophysics, Leatherhead, U.K.) with a measured dead time of 0.7 ms. […] Extravesicular carboxyfluorescein fluorescence was completely quenched using anti-fluorescein antibody (Harris et al., 1990, Am. J. Physiol. 259:F366-F371). Within the range of osmolalities used in these experiments, the vesicles acted as perfect osmometers, and relative volume (absolute volume divided by initial volume) was linearly related to relative fluorescence (absolute fluorescence divided by initial fluorescence). […]

[1] = Stopped-flow osmotic water permeability of control liposomes; format: biochemical; details: mercurial reagent 1 mM
Experimental: Purified AQP1 was stored overnight at 0° C. or frozen for several days at -80° C. prior to reconstitution. Reconstitution into proteoliposomes was carried out in a final volume of 1 ml containing 60-90 μg of purified AQP1 protein in chromatography buffer, 9 mg of bath-sonicated E. coli phospholipid, 1.25% (w/v) octyl glucoside, and 50 mM Tris-HCl (pH 7.5). The mixture was briefly blended on a vortex mixer and incubated for 20 minutes on ice. […] Protein and phospholipid were measured as described by Ambudkar & Maloney (J. Biol. Chem., 1986, 261:10079-10086).
as §1, with “259:F366-F371).” for “259:F366-F371). Within the range of osmolalities used in these experiments, the vesicles acted as perfect osmometers, and relative volume (absolute volume divided by initial volume) was linearly related to relative fluorescence (absolute fluorescence divided by initial fluorescence).”

CHIP28 water channel = target: T2, CHIP28 water channel (Homo sapiens, UniProt P29972); assay: Urea permeability of CHIP28 proteoliposomes; format: biochemical; details: internal urea 374 mM, external urea 187 mM
T2 construct: Human erythrocytes were obtained from blood-bank units stored up to 5 weeks; from tissue; host or cells: human erythrocytes (blood-bank units; small-scale preparations from freshly drawn whole blood)
T2 sequence (P29972 2-269 limits assumed): T1 sequence (P29972 2-269 limits assumed)
Excerpt: The general formula defining solute exit from a vesicle is
Jurea =d(urea)/dt=Purea (SA)ΔC (2)
where Jurea is urea flux, Purea is the permeability coefficient for urea, SA is the surface area of the vesicle, and ΔC is the difference in urea concentration between the inside and outside of the vesicle, which diminishes as the system reaches equilibrium. If
Using parameters from the single-exponential curve fit to the data and the relationship between relative volume and relative fluorescence, equation 4 was solved for Purea using MathCAD.
Exclusion of urea. To determine the selectivity of the CHIP28 water channel, CHIP28-containing liposomes were loaded with urea at a level similar to the measured Km for urea transport in RBCs and were abruptly mixed with solutions of identical osmolality containing half the urea concentration. Urea permeability was determined by monitoring the relative fluorescence of entrapped carboxyfluorescein during the urea efflux. Solutions inside and outside the vesicle were of equal osmolality but differed in the concentrations of permeant and impermeant solutes (Grossman et al., 1992, Am. J. Physiol., in press). Thus, internal urea concentration was 374 mM and external urea concentration was 187 mM with the remaining osmolality balanced by 187 mM sucrose. […]

O=C(CCc1ccc(O)cc1)c1c(O)cc(O)cc1O [Phloretin]
effect on urea flux (human RBC): inhibits urea flux
effect on water flux (human RBC): without altering water flux

O=S(=O)([O-])c1cc[c]([Hg][Cl])cc1 [pCMBS, p-chloromercuribenzene sulfonate]
Pf after mercurial treatment (AQP1; 1 mM pCMBS, 25 minutes at 37° C.): 0.009±0.005 cm/s
extent of inhibition of Pf at 5 and 10 minutes (AQP1; 1 mM, 37° C.): partial
effect on the Pf of control liposomes [1]: Neither pCMBS nor HgCl2 had any effect

B1: AQP1: Mr 28,000 transmembrane water channel protein of human erythrocytes, 269 amino acids (protein)
chain: T1 sequence (P29972 2-269 limits assumed)
urea permeability versus control liposomes (CHIP28 water channel): did not augment urea permeability
